Assay results as given in PubChem BioAssay AID192 (DTP/NCI, 2004).
Several values for one entry are separate records, joined by “and”; a condition that tells them apart may be missing. Identical values can stand only once. Toxic doses and inconclusive results are not listed.

Test system: BDF1 mice, B16 melanoma ip, median survival T/C
Assay: NCI In Vivo Anticancer Drug Screen. Data for tumor model B16 Melanoma (intraperitoneal) in B6D2F1 (BDF1) mice
Conditions: endpoint: median survival time, higher = longer survival
Method in brief: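 Values are ratios of treated (T) to vehicle-control (C) measurements of survival or tumor size in tumor-bearing mice.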

[1] = dose: 12.5 mg/kg/injection, schedule: Q01DX009 (ip), vehicle: saline with Tween-80
[2] = dose: 25.0 mg/kg/injection, schedule: Q01DX009 (ip), vehicle: saline with Tween-80
[3] = dose: 50.0 mg/kg/injection, schedule: Q01DX009 (ip), vehicle: saline with Tween-80
[4] = dose: 100.0 mg/kg/injection, schedule: Q01DX009 (ip), vehicle: saline with Tween-80
[5] = dose: 200.0 mg/kg/injection, schedule: Q01DX009 (ip), vehicle: saline with Tween-80
[6] = dose: 400.0 mg/kg/injection, schedule: Q01DX009 (ip), vehicle: saline with Tween-80

With `CC(N)CCc1ccccc1` (stereo unspecified) the T/C (dose: 12.5 mg/kg/injection, schedule: Q04DX003 (ip), vehicle: saline) was 100 % of control, the T/C (dose: 25.0 mg/kg/injection, schedule: Q04DX003 (ip), vehicle: saline) was 108 % of control and the T/C (dose: 50.0 mg/kg/injection, schedule: Q04DX003 (ip), vehicle: saline) was 111 % of control.
With `Cc1cc(=O)[nH]c(N/N=C/c2cc(Cl)ccc2O)n1` the T/C [1] was 93 % of control, the T/C [2] was 90 % of control and the T/C [3] was 86 % of control.
`C=C(C)C12CC(C)C34OC5(CCCCCCCC(C)C6C(C)C(OC(=O)c7ccccc7)C(O)(C(O)C7(COC(=O)CCCCCCCCCCCCCCC)OC7C3C1O5)C64)O2` (stereo unspecified) was tested, and the T/C (dose: 1.5 micrograms/kg/injection, schedule: Q01DX009 (ip), vehicle: saline) was 107 % of control, the T/C (dose: 1.9 micrograms/kg/injection, schedule: Q01DX009 (ip), vehicle: Klucel (hydroxypropylcellulose) (HPC)) was 102 % of control and the T/C (dose: 3.1 micrograms/kg/injection, schedule: Q01DX009 (ip), vehicle: saline) was 100 % of control. The T/C (dose: 3.8 micrograms/kg/injection, schedule: Q01DX009 (ip), vehicle: Klucel (hydroxypropylcellulose) (HPC)) was 88 % of control, the T/C (dose: 6.2 micrograms/kg/injection, schedule: Q01DX009 (ip), vehicle: saline) was 104 % of control and the T/C (dose: 7.5 micrograms/kg/injection, schedule: Q01DX009 (ip), vehicle: Klucel (hydroxypropylcellulose) (HPC)) was 98 % of control. The T/C (dose: 12.5 micrograms/kg/injection, schedule: Q01DX009 (ip), vehicle: saline) was 95 % of control, the T/C (dose: 15.0 micrograms/kg/injection, schedule: Q01DX009 (ip), vehicle: Klucel (hydroxypropylcellulose) (HPC)) was 87 % of control and the T/C (dose: 25.0 micrograms/kg/injection, schedule: Q01DX009 (ip), vehicle: saline) was 102 % of control. The T/C (dose: 50.0 micrograms/kg/injection, schedule: Q01DX009 (ip), vehicle: saline) was 96 % of control.
In the case of `CCCC1OC(/C=C/c2ccccc2)OCC1CC` (stereo unspecified), the T/C [4] is reported as 110 % of control, the T/C [5] is reported as 110 % of control and the T/C [6] is reported as 98 % of control.
In the case of `CNC(C)CC1CCCCC1` (stereo unspecified), the T/C (dose: 3.12 mg/kg/injection, schedule: Q01DX009 (ip), vehicle: saline) is reported as 100 % of control, the T/C (dose: 6.25 mg/kg/injection, schedule: Q01DX009 (ip), vehicle: saline) is reported as 100 % of control and the T/C (dose: 12.5 mg/kg/injection, schedule: Q01DX009 (ip), vehicle: saline) is reported as 100 % of control. For the same compound, the T/C (dose: 25.0 mg/kg/injection, schedule: Q01DX009 (ip), vehicle: saline) was 95 % of control.
For `Nc1nc(N)c2nc(CN(CCO)c3ccc(C(=O)NC(CCC(=O)O)C(=O)O)cc3)cnc2n1` (stereo unspecified), the T/C (dose: 0.1 mg/kg/injection, schedule: Q01DX009 (ip), vehicle: Klucel (hydroxypropylcellulose) (HPC)) was 107 % of control, the T/C (dose: 0.2 mg/kg/injection, schedule: Q01DX009 (ip), vehicle: Klucel (hydroxypropylcellulose) (HPC)) was 101 % of control and the T/C (dose: 0.37 mg/kg/injection, schedule: Q01DX009 (ip), vehicle: Klucel (hydroxypropylcellulose) (HPC)) was 99 % of control. The T/C (dose: 0.75 mg/kg/injection, schedule: Q01DX009 (ip), vehicle: Klucel (hydroxypropylcellulose) (HPC)) was 109 % of control, the T/C (dose: 1.0 mg/kg/injection, schedule: Q01DX009 (ip), vehicle: Klucel (hydroxypropylcellulose) (HPC)) was 157 % of control and the T/C (dose: 1.5 mg/kg/injection, schedule: Q01DX009 (ip), vehicle: Klucel (hydroxypropylcellulose) (HPC)) was 97 % of control.
With `C=C(OC)C(Nc1cc(OC)c(OC)cc1C(=O)OC1CC(O[C@@H]2C(=O)C(NC(=O)OC)=C3/C(=C\CSSSC)[C@]2(O)C#C/C=C\C#C[C@@H]3OC2OC(C)C(NOC3CC(O)C(SC)C(C)O3)C(O)C2OC2CC(OC)C(NCCC)CO2)OC(C)C1O)OC` (stereo partly specified) the T/C (dose: 0.1 micrograms/kg/injection, schedule: Q01DX009 (ip), vehicle: methylcellulose (MC)) was 178 % of control, the T/C (dose: 0.2 micrograms/kg/injection, schedule: Q01DX009 (ip), vehicle: methylcellulose (MC)) was 172 % of control and the T/C (dose: 0.4 micrograms/kg/injection, schedule: Q01DX009 (ip), vehicle: methylcellulose (MC)) was 175 % of control. For the same compound, the T/C (dose: 0.4 micrograms/kg/injection, schedule: Q04DX003 (ip), vehicle: methylcellulose (MC)) was 160 % of control, the T/C (dose: 0.8 micrograms/kg/injection, schedule: Q01DX009 (ip), vehicle: methylcellulose (MC)) was 182 % of control and the T/C (dose: 1.6 micrograms/kg/injection, schedule: Q01DX009 (ip), vehicle: methylcellulose (MC)) was 182 % of control. For the same compound, the T/C (dose: 1.6 micrograms/kg/injection, schedule: Q04DX003 (ip), vehicle: methylcellulose (MC)) was 168 % of control, the T/C (dose: 3.2 micrograms/kg/injection, schedule: Q04DX003 (ip), vehicle: methylcellulose (MC)) was 153 % of control and the T/C (dose: 6.4 micrograms/kg/injection, schedule: Q04DX003 (ip), vehicle: methylcellulose (MC)) was 106 % of control.
With `O=C(CCCN1CCC(O)(c2cccc(C(F)(F)F)c2)CC1)c1ccc(F)cc1` the T/C (dose: 0.04 mg/kg/injection, schedule: Q01DX009 (ip), vehicle: Klucel (hydroxypropylcellulose) (HPC)) was 93 % of control, the T/C (dose: 0.19 mg/kg/injection, schedule: Q01DX009 (ip), vehicle: Klucel (hydroxypropylcellulose) (HPC)) was 101 % of control and the T/C (dose: 0.39 mg/kg/injection, schedule: Q01DX009 (ip), vehicle: Klucel (hydroxypropylcellulose) (HPC)) was 112 % of control. The T/C (dose: 0.78 mg/kg/injection, schedule: Q01DX009 (ip), vehicle: Klucel (hydroxypropylcellulose) (HPC)) was 105 % of control, the T/C (dose: 4.0 mg/kg/injection, schedule: Q01DX009 (ip), vehicle: Klucel (hydroxypropylcellulose) (HPC)) was 95 % of control and the T/C (dose: 8.0 mg/kg/injection, schedule: Q01DX009 (ip), vehicle: Klucel (hydroxypropylcellulose) (HPC)) was 98 % of control.
In the case of `CCOC(=O)Oc1c(OC)cc(C(=O)O[C@@H]2C[C@@H]3CN4CCc5c([nH]c6cc(OC)ccc56)[C@H]4C[C@@H]3[C@H](C(=O)OC)[C@H]2OC)cc1OC`, the T/C (dose: 0.09 mg/kg/injection, schedule: Q01DX009 (ip), vehicle: saline) is reported as 98 % of control, the T/C (dose: 0.19 mg/kg/injection, schedule: Q01DX009 (ip), vehicle: saline) is reported as 93 % of control and the T/C (dose: 0.39 mg/kg/injection, schedule: Q01DX009 (ip), vehicle: saline) is reported as 124 % of control. The T/C (dose: 0.78 mg/kg/injection, schedule: Q01DX009 (ip), vehicle: saline) was 101 % of control, the T/C (dose: 1.56 mg/kg/injection, schedule: Q01DX009 (ip), vehicle: saline) was 112 % of control and the T/C (dose: 6.25 mg/kg/injection, schedule: Q01DX009 (ip), vehicle: Klucel (hydroxypropylcellulose) (HPC)) was 87 % of control.
For `CC/C=C/c1cccc(OC)c1`, the T/C (dose: 100.0 mg/kg/injection, schedule: Q01DX009 (ip), vehicle: Klucel (hydroxypropylcellulose) (HPC)) was 96 % of control, the T/C (dose: 200.0 mg/kg/injection, schedule: Q01DX009 (ip), vehicle: Klucel (hydroxypropylcellulose) (HPC)) was 96 % of control and the T/C (dose: 400.0 mg/kg/injection, schedule: Q01DX009 (ip), vehicle: Klucel (hydroxypropylcellulose) (HPC)) was 92 % of control.
`Cc1ccccc1OS(=O)(=O)c1cccc([N+](=O)[O-])c1` was tested, and the T/C [4] was 113 % of control, the T/C [5] was 113 % of control and the T/C [6] was 107 % of control.
In the case of `C#CCN(C)/N=N/c1nc[nH]c1C(N)=O`, the T/C [1] is reported as 97 % of control, the T/C [2] is reported as 111 % of control and the T/C [3] is reported as 124 % of control.
In the case of `COc1ccc(NC(=O)Oc2ccccc2-c2ccccc2)cc1`, the T/C (dose: 8.0 mg/kg/injection, schedule: Q01DX009 (ip), vehicle: saline with Tween-80) is reported as 100 % of control, the T/C (dose: 12.0 mg/kg/injection, schedule: Q01DX009 (ip), vehicle: saline with Tween-80) is reported as 95 % of control and the T/C [1] is reported as 223 % of control. For the same compound, the T/C (dose: 18.0 mg/kg/injection, schedule: Q01DX009 (ip), vehicle: saline with Tween-80) was 95 % of control, the T/C [2] was 199 % of control and the T/C [3] was 213 % of control.
`CN(C)c1ccc(C(=C2C=CC(=[N+](C)C)C=C2)c2ccc(N(C)C)cc2)cc1` (tested in a mixture with another compound) was tested, and the T/C (dose: 0.31 mg/kg/injection, schedule: Q01DX009 (ip), vehicle: saline with Tween-80) was 123 % of control, the T/C (dose: 0.62 mg/kg/injection, schedule: Q01DX009 (ip), vehicle: saline with Tween-80) was 109 % of control and the T/C (dose: 1.25 mg/kg/injection, schedule: Q01DX009 (ip), vehicle: saline with Tween-80) was 104 % of control. For the same compound, the T/C (dose: 2.5 mg/kg/injection, schedule: Q01DX009 (ip), vehicle: saline with Tween-80) was 116 % of control.
With `CCc1ccccc1NC(=O)Nc1ccccc1C` the T/C (dose: 100.0 mg/kg/injection, schedule: Q04DX003 (ip), vehicle: Klucel (hydroxypropylcellulose) (HPC)) was 87 % of control, the T/C (dose: 200.0 mg/kg/injection, schedule: Q04DX003 (ip), vehicle: Klucel (hydroxypropylcellulose) (HPC)) was 87 % of control and the T/C (dose: 400.0 mg/kg/injection, schedule: Q04DX003 (ip), vehicle: Klucel (hydroxypropylcellulose) (HPC)) was 87 % of control.
For `O=C1CCC(c2ccccc2)=NN1`, the T/C (dose: 6.25 mg/kg/injection, schedule: Q01DX009 (ip), vehicle: saline with Tween-80) was 102 % of control, the T/C [1] was 102 % of control and the T/C [2] was 102 % of control. For the same compound, the T/C [3] was 89 % of control and 94 % of control.
